Reference: patent publication US8178579B2, “Dioxanes and uses thereof” (President and Fellows of Harvard College, priority 2001, dated 2012)

Experiments:
[1] = system: α-tubulin acetylation in the presence of ITSA1; assay: ITSA1+AcTubulin assay: suppression of induced acetylation by ITSA1; assay type: cell-based, human; settings: ITSA1 50 μM, A549 cells
Experimental: A549 cells were seeded at a density of 4,000 cells/50 μl in DMEM+ in white tissue culture-treated 384-well plates (Nalge Nunc) using a Multidrop 384 liquid dispenser (Labsystems). Library small molecules were pinned twice (100-150 nl/pin) from ˜1 mM stock solutions (DMSO) and incubated for 18 hours. For the ITSA1+AcTubulin assay, ITSA1 (50 μM) was added four hours after pin-transfer of library molecules. Media was aspirated with a 16-channel wand. […] Plates were read on an Analyst plate reader (LJL Biosystems) with an integration time of 0.1 seconds.
Bromodeoxyuridine labeling and fluorescence-activated cell sorting (FACS) were performed as described (K. M. Koeller et al., Chemistry & Biology, 10 (5) (2003) pp. 397-410). […]

[2] = molecular target: T1, HDAC6 (Homo sapiens, UniProt Q9UBN7); assay: in vitro enzyme inhibition assay (Fluor de Lys deacetylation) of HDAC1, 4 and 6; assay type: biochemical; design: endogenous in cells; host or cells: A549 cells; settings: in vitro enzyme inhibition (FIG. 13)
T1 sequence (Q9UBN7 1-1215): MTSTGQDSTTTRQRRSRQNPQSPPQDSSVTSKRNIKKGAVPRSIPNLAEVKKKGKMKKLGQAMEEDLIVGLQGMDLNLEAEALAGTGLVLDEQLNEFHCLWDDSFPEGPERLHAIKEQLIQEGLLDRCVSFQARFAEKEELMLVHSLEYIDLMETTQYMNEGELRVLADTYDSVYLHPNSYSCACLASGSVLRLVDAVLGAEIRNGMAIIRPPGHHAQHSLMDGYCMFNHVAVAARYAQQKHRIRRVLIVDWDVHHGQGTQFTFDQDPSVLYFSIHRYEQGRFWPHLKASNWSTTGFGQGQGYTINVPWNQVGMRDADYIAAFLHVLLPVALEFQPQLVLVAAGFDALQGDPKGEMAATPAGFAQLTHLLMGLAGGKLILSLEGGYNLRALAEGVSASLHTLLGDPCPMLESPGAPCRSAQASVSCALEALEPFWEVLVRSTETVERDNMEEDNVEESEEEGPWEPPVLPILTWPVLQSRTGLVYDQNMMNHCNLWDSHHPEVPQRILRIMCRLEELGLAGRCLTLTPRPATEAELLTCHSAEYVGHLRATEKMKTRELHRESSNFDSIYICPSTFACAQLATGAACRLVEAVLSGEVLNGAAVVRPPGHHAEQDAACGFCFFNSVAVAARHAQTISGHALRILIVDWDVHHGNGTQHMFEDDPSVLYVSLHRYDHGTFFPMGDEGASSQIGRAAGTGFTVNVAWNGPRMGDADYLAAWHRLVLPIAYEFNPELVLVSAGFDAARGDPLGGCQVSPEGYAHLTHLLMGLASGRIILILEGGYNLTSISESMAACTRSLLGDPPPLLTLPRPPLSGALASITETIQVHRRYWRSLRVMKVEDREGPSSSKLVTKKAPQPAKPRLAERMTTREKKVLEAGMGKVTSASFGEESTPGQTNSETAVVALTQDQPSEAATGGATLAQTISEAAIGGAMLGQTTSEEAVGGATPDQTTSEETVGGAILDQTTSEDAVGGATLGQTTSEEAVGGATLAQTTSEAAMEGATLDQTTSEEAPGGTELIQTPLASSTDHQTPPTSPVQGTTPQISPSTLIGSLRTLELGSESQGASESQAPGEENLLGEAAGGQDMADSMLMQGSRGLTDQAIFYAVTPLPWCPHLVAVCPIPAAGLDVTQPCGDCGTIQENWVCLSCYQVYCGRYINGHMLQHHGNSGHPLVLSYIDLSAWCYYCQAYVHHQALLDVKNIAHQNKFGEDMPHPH

O=C(CCCCCCC(=O)Nc1ccc([C@@H]2OC(c3ccc(CO)cc3)C[C@H](CSc3nc(-c4ccccc4)c(-c4ccccc4)o3)O2)cc1)NO (some centres unmarked) [tubacin]
suppression of the induced acetylation by ITSA1 [1]: partially suppressed by ITSA1
selectivity for HDAC6 over HDAC1 and HDAC4 [2]: 3 fold
